Measured values from paper PMC11750672, “The in vivo metabolic pathway of Deg-AZM and in vitro investigations into the contribution of drug metabolizing enzymes and drug transporters in the drug interactions of Deg-AZM, a clinical-stage new transgelin agonist” (Frontiers in Pharmacology, 2025).

Tests used:
[1] = system: CYP3A4; experiment: CYP induction (mRNA, qPCR) in human hepatocytes; type: in vitro ADME; details: for CYP3A4 induction, % of PC: PC rifampicin 20 μM
Description: (§1) After culture and complete induction, total mRNA was extracted by TRNzol RNA Extraction Kit (purchased from Tiangen Biochemical Technology Co., Ltd., Beijing). The RNA was reverse transcribed into cDNA according to the instructions of the Transcriptor First Strand cDNA Synthesis Kit (purchased from Roche, Switzerland). Using reverse transcribed cDNA as a template, amplifying the internal reference genes of β-Actin of the sample and target genes of CYP1A2, CYP2B6, and CYP3A4 respectively to compare the expression differences.

[2] = system: CYP1A2; experiment: CYP induction (mRNA, qPCR) in human hepatocytes; type: in vitro ADME; details: for CYP1A2 induction, % of PC: PC omeprazole 50 μM
Description: as §1

[3] = Bidirectional transport in Caco-2 cell monolayer; type: in vitro ADME, human; details: human, Caco-2, without quinidine
Description: (§2) The human colon adenocarcinoma Caco-2 cell line was provided by Institute of Basic Medicine, Chinese Academy of Medical Sciences (Beijing, China). Caco-2 cells were cultured in a high sugar DMEM medium containing 10% (v/v) fetal bovine serum at 37°C and 5% CO2 incubator. Caco-2 cells (2.5 ×10^5/mL) was inoculated into Transwell polycarbonate membrane 12 well plate. The culture medium was changed every 2 days for the first 14 days, and then every day. After 21 consecutive days, fully differentiated cell monolayers were obtained for drug transport assays.
(§3) Transepithelial electrical resistance (TEER) was used to indicate monolayer integrity. The electrode of the Millcell ERS-2 voltammeter was placed in HBSS solution for 20 min to pre-balance. At the same time, the culture medium was removed from the Transwell culture plate, 0.5 mL of pre-heated HBSS solution was added into the Apical (AP) of transwell, 1.5 mL of pre-heated HBSS solution was added into the Basolateral (BL) of transwell. After that, the transwell was balanced at 37°C for 20 min and then replaced the HBSS solution with the pre-heated HBSS solution, the TEER value was measured finally. Caco-2 cell monolayers with TEER >350 Ω cm^2 which means that the cells have formed a tight monolayer, were used for the experiment. The TEER value was calculated according to the following formula: TEER=TEERT ‐ TEERc×A where TEERT represented the TEER value (Ω) of the measured Transwell chamber with Caco-2 cells, TEERC was the TEER value (Ω) of the transwell chamber in the control group, and A was the membrane area of the transwell cavity (1.12 cm^2 in this experiment).
(§4) In order to evaluate the usability of the Transwell model research, [^3H] Propranolol (0.5 μCi/mL) and [^14C] PEG4000 (1 μCi/mL) served as high-permeability and impermeability controls to verify the uptake direction on Caco-2 cell monolayer, respectively. Rhodamine 123 was used as a positive control for efflux mechanism in bidirectional transport assay on Caco-2 cell monolayer.
(§5) The transmembrane permeability of Deg-AZM (2, 10 or 50 µM) and the potential to inhibit P-gp by Deg-AZM (2, 10 or 50 µM) were evaluated using Caco-2 cell monolayer both apical-to-basolateral (A-B) and basolateral-to-apical (B-A) directions at 37°C for 1 h, the experiments were conducted using quinidine (50 μM) as the inhibitor for P-gp. At the end of incubation, receiver and donor samples were both diluted by assay buffer and analyzed by LC-MS/MS.

[4] = system: Caco-2 cell monolayer; experiment: Bidirectional transport in Caco-2 cell monolayer; type: in vitro ADME, human; details: 2, 10 and 50 μM, intake direction
Description: as §2, §3, §4, §5

[5] = 5 μM, hepatocyte batch LHuf 17905B
[6] = 25 μM, hepatocyte batch LHuf 17905B
[7] = 100 μM, hepatocyte batch LHuf 17905B

CCC1OC(=O)C(C)C(O)C(C)C(O)C(C)(O)CC(C)CN(C)C(C)C(O)C1(C)O (stereo not drawn) [Deg-AZM, Deglycosylated azithromycin]
CYP3A4 induction, % of PC ([1]; 5 μM, batch HUB): 2.15% | CYP3A4 induction, % of PC ([1]; 5 μM, batch LHuf 17905B): 5.55% | CYP3A4 induction, % of PC ([1]; 5 μM, batch MWB): 1.99% | CYP3A4 mRNA induction, times of control group ([1]; 5 μM, hepatocyte batch HUB): 1.80 | CYP3A4 mRNA induction, times of control group [1, 5]: 2.30 | CYP3A4 mRNA induction, times of control group ([1]; 5 μM, hepatocyte batch MWB): 1.96 | CYP3A4 induction, % of PC ([1]; 25 μM, batch HUB): 3.06% | CYP3A4 induction, % of PC ([1]; 25 μM, batch LHuf 17905B): 12.1% | CYP3A4 induction, % of PC ([1]; 25 μM, batch MWB): 6.32% | CYP3A4 mRNA induction, times of control group ([1]; 25 μM, hepatocyte batch HUB): 2.13 | CYP3A4 mRNA induction, times of control group [1, 6]: 3.84 | CYP3A4 mRNA induction, times of control group ([1]; 25 μM, hepatocyte batch MWB): 4.05 | CYP3A4 induction, % of PC ([1]; 100 μM, batch HUB): 13.5% | CYP3A4 induction, % of PC ([1]; 100 μM, batch LHuf 17905B): 54.2% | CYP3A4 induction, % of PC ([1]; 100 μM, batch MWB): 29.3% | CYP3A4 mRNA induction, times of control group ([1]; 100 μM, hepatocyte batch HUB): 6.01 | CYP3A4 mRNA induction, times of control group [1, 7]: 13.7 | CYP3A4 mRNA induction, times of control group ([1]; 100 μM, hepatocyte batch MWB): 15.2 | Induction effect on CYP3A4 (conclusion) ([1]; 5, 25, and 100 µM, three batches of primary human hepatocytes): has an inducing effect | CYP1A2 induction, % of PC ([2]; 5 μM, batch HUB): −0.318% | CYP1A2 induction, % of PC ([2]; 5 μM, batch LHuf 17905B): −0.507% | CYP1A2 induction, % of PC ([2]; 5 μM, batch MWB): 0.0293% | CYP1A2 mRNA induction, times of control group ([2]; 5 μM, hepatocyte batch HUB): 0.850 | CYP1A2 mRNA induction, times of control group [2, 5]: 0.721 | CYP1A2 mRNA induction, times of control group ([2]; 5 μM, hepatocyte batch MWB): 1.02 | CYP1A2 induction, % of PC ([2]; 25 μM, batch HUB): −0.349% | CYP1A2 induction, % of PC ([2]; 25 μM, batch LHuf 17905B): −0.569% | CYP1A2 induction, % of PC ([2]; 25 μM, batch MWB): −0.0814% | CYP1A2 mRNA induction, times of control group ([2]; 25 μM, hepatocyte batch HUB): 0.835 | CYP1A2 mRNA induction, times of control group [2, 6]: 0.687 | CYP1A2 mRNA induction, times of control group ([2]; 25 μM, hepatocyte batch MWB): 0.948 | CYP1A2 induction, % of PC ([2]; 100 μM, batch HUB): 0.0545% | CYP1A2 induction, % of PC ([2]; 100 μM, batch LHuf 17905B): −0.209% | CYP1A2 induction, % of PC ([2]; 100 μM, batch MWB): −0.319% | CYP1A2 mRNA induction, times of control group ([2]; 100 μM, hepatocyte batch HUB): 1.03 | CYP1A2 mRNA induction, times of control group [2, 7]: 0.885 | CYP1A2 mRNA induction, times of control group ([2]; 100 μM, hepatocyte batch MWB): 0.797 | Induction effect on CYP1A2 (conclusion) ([2]; 5, 25, and 100 µM, three batches of human hepatocytes): no induction effect | Papp A→B at 1 h, 2 μM ([3]; 2 μM, 37°C 1 h, n = 3): 0.326 ± 0.0481 ×10⁻⁶ cm/s | Papp B→A at 1 h, 2 μM ([3]; 2 μM, 37°C 1 h, n = 3): 5.27 ± 0.771 ×10⁻⁶ cm/s | efflux ratio at 1 h, 2 μM ([3]; 2 μM, read-out: ER): 16.2 | Papp A→B at 1 h, 10 μM ([3]; 10 μM, 37°C 1 h, n = 3): 0.302 ± 0.0416 ×10⁻⁶ cm/s | Papp B→A at 1 h, 10 μM ([3]; 10 μM, 37°C 1 h, n = 3): 3.7 ± 0.485 ×10⁻⁶ cm/s | efflux ratio at 1 h, 10 μM ([3]; 10 μM, read-out: ER): 12.2 | Papp A→B at 1 h, 50 μM ([3]; 50 μM, 37°C 1 h, n = 3): 0.316 ± 0.0201 ×10⁻⁶ cm/s | Papp B→A at 1 h, 50 μM ([3]; 50 μM, 37°C 1 h, n = 3): 3.16 ± 0.401 ×10⁻⁶ cm/s | efflux ratio at 1 h, 50 μM ([3]; 50 μM, read-out: ER): 10 | Permeability classification [4]: low permeability drug with poor transmembrane ability
